Measured values published in the supplement of paper PMC10307832.

Columns and labels:
Experiment in all cases: relative viability (nuclei count vs DMSO), 5 days (fraction); higher = more cells survive
Erlotinib + Palbociclib = compound: C#Cc1cccc(Nc2ncnc3cc(OCCOC)c(OCCOC)cc23)c1 [Erlotinib] + CC(=O)c1c(C)c2cnc(Nc3ccc(N4CCNCC4)cn3)nc2n(C2CCCC2)c1=O [Palbociclib] (partner 0.5 µM)
Procedure, shortened: (§1)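 For relative viability, nuclei counts in treated wells were divided by those in vehicle wells. Lung cancer cell lines had been pin-tool dosed in 1536-well plates the day after seeding and cultured for 5 days, then fixed and stained in one step (final 0.05% Triton X-100, 1% formaldehyde, 1 ug/ml Hoechst) and imaged at 4×. Doses were one drug alone or a fixed anchor-drug dose plus five library-drug doses (not always all listed) in √10 steps, and values are duplicate-plate medians.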

Erlotinib + Navitoclax = compound: C#Cc1cccc(Nc2ncnc3cc(OCCOC)c(OCCOC)cc23)c1 [Erlotinib] + CC1(C)CCC(c2ccc(Cl)cc2)=C(CN2CCN(c3ccc(C(=O)NS(=O)(=O)c4ccc(N[C@H](CCN5CCOCC5)CSc5ccccc5)c(S(=O)(=O)C(F)(F)F)c4)cc3)CC2)C1 [Navitoclax] (partner 0.5 µM)
Procedure, shortened: as §1

Erlotinib + Tozasertib = compound: C#Cc1cccc(Nc2ncnc3cc(OCCOC)c(OCCOC)cc23)c1 [Erlotinib] + Cc1cc(Nc2cc(N3CCN(C)CC3)nc(Sc3ccc(NC(=O)C4CC4)cc3)n2)n[nH]1 [Tozasertib] (partner 0.1 µM)
Procedure, shortened: as §1

Erlotinib + Vorinostat = compound: C#Cc1cccc(Nc2ncnc3cc(OCCOC)c(OCCOC)cc23)c1 [Erlotinib] + O=C(CCCCCCC(=O)Nc1ccccc1)NO [Vorinostat] (partner 1 µM)
Procedure, shortened: as §1

AT9283 + Navitoclax = compound: O=C(Nc1c[nH]nc1-c1nc2ccc(CN3CCOCC3)cc2[nH]1)NC1CC1 [AT9283] + CC1(C)CCC(c2ccc(Cl)cc2)=C(CN2CCN(c3ccc(C(=O)NS(=O)(=O)c4ccc(N[C@H](CCN5CCOCC5)CSc5ccccc5)c(S(=O)(=O)C(F)(F)F)c4)cc3)CC2)C1 [Navitoclax] (partner 0.5 µM)
Procedure, shortened: as §1

Row | Cell Line | relative viability (Erlotinib + Palbociclib; first compound 0.02 µM) | relative viability (Erlotinib + Palbociclib; first compound 0.2 µM) | relative viability (Erlotinib + Palbociclib; first compound 0.6325 µM) | relative viability (Erlotinib + Palbociclib; first compound 2 µM) | relative viability (Erlotinib + Navitoclax; first compound 0.02 µM) | relative viability (Erlotinib + Navitoclax; first compound 0.2 µM) | relative viability (Erlotinib + Navitoclax; first compound 0.6325 µM) | relative viability (Erlotinib + Navitoclax; first compound 2 µM) | relative viability (Erlotinib + Tozasertib; first compound 0.02 µM) | relative viability (Erlotinib + Tozasertib; first compound 0.2 µM) | relative viability (Erlotinib + Tozasertib; first compound 0.6325 µM) | relative viability (Erlotinib + Tozasertib; first compound 2 µM) | relative viability (Erlotinib + Vorinostat; first compound 0.02 µM) | relative viability (Erlotinib + Vorinostat; first compound 0.2 µM) | relative viability (Erlotinib + Vorinostat; first compound 0.6325 µM) | relative viability (Erlotinib + Vorinostat; first compound 2 µM) | relative viability (AT9283 + Navitoclax; first compound 0.003 µM) | relative viability (AT9283 + Navitoclax; first compound 0.03 µM) | relative viability (AT9283 + Navitoclax; first compound 0.09487 µM) | relative viability (AT9283 + Navitoclax; first compound 0.3 µM)
1 | NCI-H520 | 0.202 | 0.223 | 0.272 | 0.311 | 1.17 | 1.11 | 1.29 | 1.12 | 0.427 | 0.471 | 0.466 | 0.432 | 0.718 | 0.693 | 0.83 | 0.71 | 1.17 | 0.34 | 0.236 | 0.23
2 | NCI-H3122 | 0.195 | 0.215 | 0.159 | 0.195 | 1.05 | 1.04 | 1.01 | 1.03 | 0.489 | 0.444 | 0.44 | 0.297 | 0.93 | 1.14 | 1.05 | 0.953 | 1.01 | 0.902 | 0.359 | 0.298
3 | LXF-289 | 0.583 | 0.566 | 0.531 | 0.539 | 0.904 | 0.991 | 0.933 | 0.869 | 0.195 | 0.218 | 0.208 | 0.117 | 0.824 | 0.762 | 0.66 | 0.758 | 0.93 | 0.665 | 0.123 | 0.133
4 | NCI-H2126 | 0.381 | 0.364 | 0.349 | 0.367 | 0.879 | 0.707 | 0.537 | 0.402 | 0.841 | 0.691 | 0.674 | 0.481 | 0.688 | 0.529 | 0.438 | 0.416 | 0.871 | 0.892 | 0.634 | 0.319
5 | SK-MES-1 | 0.35 | 0.257 | 0.327 | 0.293 | 1.35 | 1.21 |  | 0.574 | 0.925 | 0.929 | 0.648 | 0.536 | 1.14 | 0.619 | 0.672 | 0.491 | 1.24 | 1.11 | 0.336 | 0.147
6 | HOP-62 | 0.544 | 0.517 | 0.453 | 0.41 | 1.08 |  | 1.19 | 1.05 | 0.405 | 0.409 | 0.411 | 0.26 | 0.714 | 0.492 | 0.759 | 0.716 | 1.07 | 0.857 | 0.088 | 0.106
7 | NCI-H1944 | 0.331 | 0.242 | 0.264 | 0.231 | 0.989 | 0.912 | 0.941 | 0.796 | 0.249 | 0.21 | 0.227 | 0.174 | 0.497 | 0.388 | 0.48 | 0.35 | 1.03 | 0.865 | 0.652 | 0.235
8 | NCI-H1395 | 0.619 | 0.532 | 0.657 | 0.571 | 1.09 | 1.02 | 1.32 | 1.13 | 0.837 | 0.772 | 0.712 | 0.566 | 0.776 | 0.674 | 0.808 | 0.652 | 1.21 | 0.716 | 0.393 | 0.421
9 | NCI-H2023 | 0.393 | 0.351 | 0.297 | 0.225 | 1.01 | 1.02 | 0.916 | 0.837 | 0.365 | 0.241 | 0.165 | 0.188 | 0.754 | 0.475 | 0.645 | 0.47 | 1.04 | 0.71 | 0.383 | 0.119
10 | SK-LU-1 | 0.372 | 0.432 | 0.376 | 0.357 | 1.07 | 1.36 | 0.752 | 0.733 | 0.336 | 0.352 | 0.332 | 0.267 | 1.01 | 0.729 | 0.899 | 0.718 | 1.13 | 0.415 | 0.178 | 0.18
11 | NCI-H322M | 0.401 | 0.431 | 0.378 | 0.426 | 1.12 | 1.09 | 0.77 | 0.468 | 0.42 | 0.374 | 0.331 | 0.314 | 0.832 | 0.716 | 0.688 | 0.546 | 1.27 | 0.802 | 0.731 | 0.436
12 | LCLC-97TM1 | 0.234 | 0.243 | 0.256 | 0.194 | 0.39 |  | 0.464 | 0.391 | 0.285 | 0.204 | 0.203 | 0.172 |  | 0.503 | 1.01 | 0.596 | 0.335 | 0.117 | 0.107 | 0.144
13 | NCI-H2405 | 0.534 | 0.521 | 0.535 | 0.54 | 0.915 | 0.902 | 1.01 | 0.78 | 0.765 | 0.722 | 0.686 | 0.565 | 1.27 | 1.1 | 1.1 | 0.917 | 1.05 | 0.31 | 0.127 | 0.0943
14 | NCI-H647 | 0.417 | 0.307 | 0.562 | 0.316 | 1.42 | 0.955 | 1.5 | 0.991 | 0.257 | 0.179 | 0.28 | 0.136 | 0.735 | 0.485 | 0.556 | 0.565 | 1.03 | 0.542 | 0.125 | 0.0857
15 | LU99A | 0.466 | 0.421 | 0.38 | 0.327 | 0.937 | 0.784 | 0.725 | 0.746 | 0.305 | 0.271 | 0.263 | 0.221 | 0.505 | 0.507 | 0.49 | 0.468 | 0.766 | 0.243 | 0.142 | 0.151
